Measurements published in ChEMBL document CHEMBL1141425, “Cytotoxic clerodane diterpenoids and their hydrolysis products from Casearia nigrescens from the rainforest of Madagascar” (J Nat Prod, 2007).
pIC50: −log10 of the molar value.

What follows are compounds tested on A2780 (assay: Cytotoxicity against human A2780 cells).
Type: cell-based
C=CC(=C)CC[C@]1(C)[C@H](C)C[C@H](O)[C@@]23C(=C[C@H](OC(=O)CCC)C[C@@H]12)[C@@H](OC(C)=O)O[C@H]3OC(C)=O [CASEANIGRESCEN D] showed a pIC50 of 6.00.
C=CC(=C)CC[C@]1(C)[C@H](C)[C@@H](O)[C@H](OC(C)=O)[C@@]23C(=C[C@H](OC(=O)CCC)C[C@@H]12)[C@@H](OC(C)=O)O[C@H]3OC(C)=O [CASEANIGRESCEN C] was tested, and the pIC50 was 6.00.
C=CC(=C)CC[C@]1(C)[C@H](C)[C@@H](OC(C)=O)[C@H](O)[C@@]2(C=O)C(C=O)=C[C@H](OC(=O)CCC)C[C@@H]12 was tested, and the pIC50 was 5.46.
C=CC(=C)CC[C@]1(C)[C@H](C)C[C@H](O)[C@@]2(C=O)C(C=O)=C[C@H](OC(=O)CCC)C[C@@H]12 [CASEANIGRESCEN D2] gave a pIC50 of 5.82.
C=CC(=C)CC[C@]1(C)[C@H](C)[C@@H](O)[C@H](O)[C@@]23C(=C[C@H](OC(=O)CCC)C[C@@H]12)[C@@H](OC(C)=O)O[C@H]3OC(C)=O [CASEANIGRESCEN B] gave a pIC50 of 6.08.
C=CC(=C)CC[C@]1(C)[C@H](C)[C@@H](OC(C)=O)[C@H](O)[C@@]23C(=C[C@H](OC(=O)CCC)C[C@@H]12)[C@@H](OC(C)=O)O[C@H]3OC(C)=O [CASEANIGRESCEN A] was tested, and the pIC50 was 5.85.
